Experimental data reported in PubChem BioAssay (NCI).
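Five compound concentrations were applied to cells in 96-well plates for 48 hours; endpoints were derived by simple linear interpolation of the resulting dose-response curve. The concentration for full growth arrest is given as TGI.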

Legend:
Assay in all cases: growth of human tumour cells (NCI), 48 h
[1] = test system: HOP-62 NSCLC
[2] = test system: OVCAR-4 ovarian
[3] = test system: NCI-H460 lung
[4] = test system: HT29 colon
[5] = test system: OVCAR-5 ovarian
[6] = test system: SNB-75 CNS
[7] = test system: SF-295 CNS
[8] = test system: UACC-62 melanoma
[9] = test system: HOP-92 NSCLC
[10] = test system: SK-MEL-28 melanoma
[11] = test system: A498 renal
[12] = test system: 786-0 renal
[13] = test system: KM20L2 colon
[14] = test system: RPMI-8226 leukemia
[15] = test system: HCT-15 colon
[16] = test system: SN12C renal
[17] = test system: HCC-2998 colon
[18] = test system: TK-10 renal
[19] = test system: UO-31 renal
[20] = test system: SK-OV-3 ovarian
[21] = test system: NCI-H23 lung
[22] = test system: OVCAR-8 ovarian
[23] = test system: DLD-1 colon
[24] = test system: HL-60(TB) leukemia
[25] = test system: NCI-H522 lung
[26] = test system: SR leukemia
[27] = test system: IGROV1 ovarian
[28] = test system: COLO 205 colon
[29] = test system: MALME-3M melanoma
[30] = test system: SF-268 CNS
[31] = test system: SK-MEL-2 melanoma
[32] = test system: NCI-H226 lung
[33] = test system: CCRF-CEM leukemia
[34] = test system: SF-539 CNS
[35] = test system: M19-MEL melanoma
[36] = test system: OVCAR-3 ovarian
[37] = test system: ACHN renal
[38] = test system: LXFL 529 NSCLC
[39] = test system: DMS 273 small cell lung
[40] = test system: M14 melanoma
[41] = test system: SNB-78 CNS
[42] = test system: LOX IMVI melanoma
[43] = test system: EKVX NSCLC
[44] = test system: U251 CNS
[45] = test system: UACC-257 melanoma
[46] = test system: MOLT-4 leukemia
[47] = test system: HCT-116 colon
[48] = test system: A549 NSCLC
[49] = test system: KM12 colon
[50] = test system: SK-MEL-5 melanoma
[51] = test system: XF 498 CNS
[52] = test system: HOP-18 NSCLC
[53] = test system: SW-620 colon
[54] = test system: DMS 114 small cell lung
[55] = test system: RXF 393 renal
[56] = test system: SNB-19 CNS
[57] = test system: K-562 leukemia

Cc1c(-c2coc(-c3ccc(Cl)cc3)n2)c(=O)n(-c2ccccc2)n1C
TGI [1]: > 100 µM
TGI [2]: > 100 µM
TGI [3]: > 100 µM
TGI [4]: > 100 µM
TGI [5]: > 100 µM
TGI [6]: > 100 µM
TGI [7]: > 100 µM
TGI [8]: > 100 µM
TGI [9]: > 100 µM
TGI [10]: > 100 µM
TGI [11]: > 100 µM
TGI [12]: > 100 µM
TGI [13]: > 100 µM
TGI [14]: > 100 µM
TGI [15]: > 100 µM
TGI [16]: > 100 µM
TGI [17]: > 100 µM
TGI [18]: > 100 µM
TGI [19]: > 100 µM
TGI [20]: > 100 µM
TGI [21]: > 100 µM
TGI [22]: > 100 µM
TGI [23]: > 100 µM
TGI [24]: > 100 µM
TGI [25]: > 100 µM
TGI [26]: > 100 µM
TGI [27]: > 100 µM
TGI [28]: > 100 µM
TGI [29]: > 100 µM
TGI [30]: > 100 µM
TGI [31]: > 100 µM
TGI [32]: > 100 µM
TGI [33]: > 100 µM
TGI [34]: > 100 µM
TGI [35]: > 100 µM
TGI [36]: > 100 µM
TGI [37]: > 100 µM
TGI [38]: > 100 µM
TGI [39]: > 100 µM
TGI [40]: > 100 µM
TGI [41]: > 100 µM
TGI [42]: > 100 µM
TGI [43]: > 100 µM
TGI [44]: > 100 µM
TGI [45]: > 100 µM
TGI [46]: > 100 µM
TGI [47]: > 100 µM
TGI [48]: > 100 µM
TGI [49]: > 100 µM
TGI [50]: > 100 µM
TGI [51]: > 100 µM

O=C1/C(=C/c2ccccc2)CN(C(=O)OCC(Cl)(Cl)Cl)C/C1=C\c1ccccc1
TGI [3]: 5.66 µM
TGI [4]: 3.63 µM
TGI [5]: 16.8 µM
TGI [6]: 13.6 µM
TGI [7]: 3.92 µM
TGI [8]: 9.03 µM
TGI [10]: 3.25 µM
TGI [11]: 6.29 µM
TGI [12]: 5.46 µM
TGI [13]: 7.68 µM
TGI [14]: 0.649 µM
TGI [52]: 9.82 µM
TGI [15]: 4.32 µM
TGI [16]: 3.56 µM
TGI [18]: 17.1 µM
TGI [19]: 12.1 µM
TGI [20]: 24.6 µM
TGI [21]: 9.46 µM
TGI [53]: 2.3 µM
TGI [22]: 3.78 µM
TGI [23]: 3.77 µM
TGI [24]: 3.38 µM
TGI [26]: 6.23 µM
TGI [27]: 15.4 µM
TGI [28]: 11.2 µM
TGI [54]: 4.08 µM
TGI [29]: 11.9 µM
TGI [30]: 15.3 µM
TGI [31]: 23.5 µM
TGI [33]: 13.5 µM
TGI [34]: 14 µM
TGI [35]: 2.79 µM
TGI [55]: 3.87 µM
TGI [56]: 11.9 µM
TGI [37]: 4.68 µM
TGI [38]: 3.94 µM
TGI [39]: 3.27 µM
TGI [57]: 5.91 µM
TGI [40]: 4.65 µM
TGI [41]: 5.92 µM
TGI [42]: 2.06 µM
TGI [44]: 3.28 µM
TGI [45]: 4.48 µM
TGI [46]: 10.3 µM
TGI [47]: 2.6 µM
TGI [48]: 20.5 µM
TGI [49]: 3.74 µM
TGI [50]: 2.95 µM
